“Also recorded” adds a separate entry of the source.
Experiments:
CD4+ human T cells = test: Human Autoimmune and Inflammatory Response Gene Array, anti-CD3-stimulated T cells with or without antibiotic; assay type: cell-based; settings: 120 min anti-CD3; for % decrease by Cef: cefuroxime 50 μg/ml, ±SD, relative to control
Experimental: T cells were purified from the peripheral bloods of healthy human donors (Blood Bank, Sheba Medical center). The whole blood was incubated (20 min, 22° C.) with RosetteSep™ human T cell enrichment mixture (StemCell Technologies, Vancouver, Canada). The remaining unsedimented cells were then loaded onto lymphocyte separation medium (ICN Biomedicals, Irvine, Calif.), isolated by density centrifugation, and washed with PBS. […] In a second round of purification, CD3^+ T cells were labeled for selection with a magnetically coupled mAb against CD4 (Miltenyi Biotec, Auburn, Calif.).
Human CD4 T cells were isolated as described, and incubated in 24 well plates (Nunc), 4×10^6 cells/ml with plate bound anti-human CD3 (OKT3) at 2 μg/ml. The stimulation was performed in RPMI medium supplemented with 0.1% BSA. […] RNA was extracted from samples and used to prepare probes for gene array in accord with the manufacturer's instructions (SuperArray Bioscience, Frederick, Md.). Adequate labeling of the probes was tested before hybridization. Three healthy donors were tested in stimulation with cefuroxime. The membranes were analyzed online with the Image Data Acquisition and Expression Analysis (SuperArray Bioscience).
The Human Autoimmune and Inflammatory Response Gene Array (SuperArray Bioscience corporation, Frederick, Md., USA) was used for analysis of gene expression by the T cells. This array contains 367 genes including cytokines, chemokines and their receptors, transcription factors and signaling proteins. […] Analysis of the results was performed using the GEArray analysis program. […] To verify the results detected by the gene array study, a panel of six genes was designed and tested by real-time PCR: CCR4, ACVR2, JAK1, STAT4, TLR2 and NFKBIE. The cDNA that was used was prepared from the same RNA used for the gene array experiment.

[1] = test system: active experimental autoimmune encephalomyelitis (EAE) in Lewis rats; test: Actively induced EAE in rats, oral antibiotic treatment; assay type: in vivo, rat; settings: oral cefuroxime Axetil in drinking water from day 7 post-induction, 50 mg/kg daily, versus the two control groups
[2] = test system: encephalitogenic BP10 line; test: Adoptive EAE: BP10 T-cell line stimulated in vitro with test substance, then injected into naive rats; assay type: in vivo, rat
Experimental: Antigen-specific T-cell lines were established from lymph node cells that had been stimulated with myelin basic protein (MBP; 10 μg/ml) for 3 days in stimulation medium as described below. Following stimulation, the T-cell blasts were isolated on LYMPHOPREP™ (Nycomed Pharma, Oslo, Norway) and seeded in propagation medium. Propagation medium was identical to stimulation medium without autologous serum, but supplemented with fetal calf serum 10% and T-cell growth factors from the supernatant of Con A stimulated spleen cells 10% (Mor et al. (1990) J Clin Invest, 85, 1594-1598). Animals were injected intra-peritoneally with 107 MBP-stimulated T cells, following 6-8 cycles of in vitro stimulations. It is known that MBP-reactive lines undergo a reduction in pathogenicity after 6 or more in vitro stimulations. In some experiments the BP10 line was stimulated with phorbol myristate acetate (PMA; 50 ng/ml) and ionomycin (500 ng/ml) for 3 days in stimulation medium, without antigen-presenting cells.
Active EAE was induced by subcutaneous injection of 25 μg guinea-pig MBP (GpMBP) in complete Freund's adjuvant (CFA). […] Adoptive EAE was transferred by intra-peritoneal injection of guinea-pig MBP-activated cells of the BP10 line as described in Mor et al. (1993) J Clin Invest, 92, 2199-2206. […] Clinical scoring was: +1, paralysis of tail; +1.5, paresis of posterior paws and ataxia; +2, paraplegia; +3, paralysis extending to thoracic spine; +4, a moribund state.
Treatment with cefuroxime in vivo could affect many different host agents involved in EAE or AA as well as influencing the rats' bacterial flora. To test whether the antibiotic might directly modify the behavior of effector T cells, an encephalitogenic T-cell line was stimulated in the presence or absence of cefuroxime in vitro. The weakly encephalitogenic BP10 line was used, and was stimulated for 3 days with MBP in the presence or absence of cefuroxime (50 μg/ml). The activated T cells were then washed to remove the antibiotic, the T cells were injected intra-peritoneally into naïve recipient rats (10^7 per rat), and EAE was scored. The BP10 line at later stimulations was used, when its pathogenic potential is reduced, allowing to detect both suppression and enhancement of disease. […] To rule out antigen presenting cells (APC) as the target of the beta-lactam antibiotic, the encephalitogenic BP10 line was stimulated without APC using PMA (50 ng/ml) and Ionomycin (500 ng/ml) in the presence or absence of cefuroxime.
Additional beta-lactam antibiotics were tested for their effect on the adoptive transfer of EAE.
A control group was injected with the untreated line.

SMILES: CO/N=C(\C(=O)N[C@@H]1C(=O)N2C(C(=O)O)=C(COC(N)=O)CS[C@H]12)c1ccco1 [cefuroxime]
- number of genes down-regulated (CD4+ human T cells; array of 367 genes, 50 μg/ml): Fifty-seven
- % decrease by Cef (CD4+ human T cells; gene ACTB): 49 ± 11%
- % decrease by Cef (CD4+ human T cells; gene ACVR1): 42 ± 0.7%
- % decrease by Cef (CD4+ human T cells; gene ACVR2): 60 ± 14.8%
- % decrease by Cef (CD4+ human T cells; gene CCL5): 21 ± 5.6%
- % decrease by Cef (CD4+ human T cells; gene CCL11): 18 ± 6.6%
- % decrease by Cef (CD4+ human T cells; gene CCR4): 39 ± 2%
- % decrease by Cef (CD4+ human T cells; gene CCR6): 53 ± 5.6%
- % decrease by Cef (CD4+ human T cells; gene CCR7): 38 ± 8.1%
- % decrease by Cef (CD4+ human T cells; gene CD28): 51 ± 2.1%
- % decrease by Cef (CD4+ human T cells; gene CD40LG): 33 ± 7.1%
- % decrease by Cef (CD4+ human T cells; gene CREB1): 19 ± 4.9%
- % decrease by Cef (CD4+ human T cells; gene CREBBP): 40 ± 9.9%
- % decrease by Cef (CD4+ human T cells; gene CXCL10): 39 ± 3%
- % decrease by Cef (CD4+ human T cells; gene EGR3): 38 ± 2.8%
- % decrease by Cef (CD4+ human T cells; gene GFI1): 45 ± 14%
- % decrease by Cef (CD4+ human T cells; gene HRAS): 30 ± 9.8%
- % decrease by Cef (CD4+ human T cells; gene IL1B): 54 ± 7.0%
- % decrease by Cef (CD4+ human T cells; gene IL2RB): 50 ± 9.9%
- % decrease by Cef (CD4+ human T cells; gene IL2RG): 57 ± 9.8%
- % decrease by Cef (CD4+ human T cells; gene IL9R): 27.5 ± 3%
- % decrease by Cef (CD4+ human T cells; gene IL16): 50 ± 7.8%
- % decrease by Cef (CD4+ human T cells; gene IRAK1): 44 ± 2.1%
- % decrease by Cef (CD4+ human T cells; gene JAK1): 53 ± 13.4%
- % decrease by Cef (CD4+ human T cells; gene JUN): 49 ± 2.2%
- % decrease by Cef (CD4+ human T cells; gene LTA): 17 ± 10%
- % decrease by Cef (CD4+ human T cells; gene MAP2K4): 52 ± 14.1%
- % decrease by Cef (CD4+ human T cells; gene MAP3K1): 53 ± 12%
- % decrease by Cef (CD4+ human T cells; gene MAP3K2): 36 ± 12%
- % decrease by Cef (CD4+ human T cells; gene MAP3K7): 46 ± 9.9%
- % decrease by Cef (CD4+ human T cells; gene MAPK9): 42 ± 10.9%
- % decrease by Cef (CD4+ human T cells; gene NFKB1): 43 ± 3.5%
- % decrease by Cef (CD4+ human T cells; gene NFKB2): 53 ± 10.6%
- % decrease by Cef (CD4+ human T cells; gene NFKBIE): 63 ± 11%
- % decrease by Cef (CD4+ human T cells; gene NFKBIL1): 54 ± 12.5%
- % decrease by Cef (CD4+ human T cells; gene PAK1): 40 ± 2.4%
- % decrease by Cef (CD4+ human T cells; gene PIN1): 45 ± 12.1%
- % decrease by Cef (CD4+ human T cells; gene RANBP5): 33 ± 3.5%
- % decrease by Cef (CD4+ human T cells; gene REL): 45 ± 1.9%
- % decrease by Cef (CD4+ human T cells; gene RFX5): 36 ± 4.2%
- % decrease by Cef (CD4+ human T cells; gene RFXAP): 27 ± 12%
- % decrease by Cef (CD4+ human T cells; gene SDF2): 28 ± 12%
- % decrease by Cef (CD4+ human T cells; gene SELL): 46 ± 7.0%
- % decrease by Cef (CD4+ human T cells; gene SMAD4): 47 ± 7.0%
- % decrease by Cef (CD4+ human T cells; gene SMAD7): 47 ± 4.2%
- % decrease by Cef (CD4+ human T cells; gene SP3): 39 ± 9.9%
- % decrease by Cef (CD4+ human T cells; gene SRF): 38 ± 1.9%
- % decrease by Cef (CD4+ human T cells; gene STAT1): 32 ± 11%
- % decrease by Cef (CD4+ human T cells; gene STAT4): 47 ± 9.3%
- % decrease by Cef (CD4+ human T cells; gene STAT6): 47 ± 7.9%
- % decrease by Cef (CD4+ human T cells; gene TGFBR3): 44 ± 3.5%
- % decrease by Cef (CD4+ human T cells; gene TGIF): 43 ± 3.5%
- % decrease by Cef (CD4+ human T cells; gene TLR2): 52 ± 14%
- % decrease by Cef (CD4+ human T cells; gene TNFRSF11): 43 ± 2%
- % decrease by Cef (CD4+ human T cells; gene TNFα): 29 ± 8.5%
- % decrease by Cef (CD4+ human T cells; gene TRAF5): 43 ± 2.2%
- % decrease by Cef (CD4+ human T cells; gene TRAF6): 43 ± 3.5%
- % decrease by Cef (CD4+ human T cells; gene YY1): 23 ± 9.1%
- severity of active EAE [1]: significantly more severe EAE; also recorded: increases the severity of actively induced EAE
- severity of adoptive EAE in recipient rats ([2]; BP10 line stimulated 3 days with MBP in presence of 50 μg/ml antibiotic, 10^7 cells per rat): markedly enhanced the manifestations of EAE
- severity of adoptive EAE in recipient rats ([2]; BP10 line stimulated 3 days with MBP in presence of 50 μg/ml antibiotic, 10^7 cells per rat, listed as Cefuroxime): enhances the pathogenicity of the BP10 line
- severity of adoptive EAE in recipient rats ([2]; BP10 line stimulated without APC using PMA (50 ng/ml) and Ionomycin (500 ng/ml)): significantly more severe
- severity of adoptive EAE in recipient rats ([2]; dose-response, BP10 line stimulated with 5 μg/ml): ineffective
- severity of adoptive EAE in recipient rats ([2]; dose-response, BP10 line stimulated with 25 μg/ml): enhancing effect similar to that of 50 μg/ml
